In patent US9636345B2, “Benzimidazole derivatives useful TRPM8 channel modulators” (Janssen Pharmaceutica NV, priority 2009, dated 2017):
Structures can show the parent of a compound that is named as a salt. Where two headings read alike, the source gives them in different places.

Biological target: T1, canine TRPM8 (Canis lupus familiaris, UniProt Q1A7N1)
T1 construct: expressed in transfected cells
Test: In vitro canine TRPM8 functional assay (icilin-induced intracellular Ca2+ increase, FLIPR/FDSS)
Assay type: cell-based
Conditions: for inhibition at 0.2 µM / % Inh @ 0.2 μM: 0.2 μM compound, HEK293 canine TRPM8; for inhibition at 1 µM / % Inh @ 1 μM: 1 μM compound, samples diluted from 10 mM stock with 100% DMSO; for IC50: read-out: IC50
Description: The functional activity of representative compounds of the formula (I) of the present invention was quantified by measuring changes in intracellular calcium concentration using a Ca^2+-sensitive fluorescent dye. The changes in fluorescent signal were monitored by a fluorescence plate reader, either a FLIPR™ (Molecular Devices) or FDSS (Hamamatsu).
HEK293 cells stably expressing canine TRPM8 were routinely grown as monolayers in Dulbecco's minimum essential medium supplemented with 10% FBS, 2 mM L-glutamine, 100 units/mL penicillin, 100 ug/mL streptomycin and 400 μg/mL G418. Cells were maintained in 5% CO2 at 37° C. At 24 hr prior to assay, cells were seeded in black wall, clear-base poly-D-lysine coated 384-well plates (BD Biosciences, N.J., USA) at a density of 5,000 cells per well in culture medium and grown overnight in 5% CO2 at 37° C. On assay day, growth media was removed, and cells were loaded with Calcium 3 Dye (Molecular Devices) for 35 min at 37° C., under 5% CO2 and then incubated for 25 min at room temperature and atmosphere. Subsequently, cells were tested for agonist-induced increases in intracellular Ca^2+ levels using FLIPR™ or FDSS. Cells were treated with compounds of the formula (I) at varying concentrations and intracellular Ca^2+ was measured for 5 min prior to the addition of icilin to all wells to achieve a final concentration that produces approximately an 80% maximal response.
Basal FI was subtracted prior to normalizing data to percent of maximal response. Curves were generated using the average of quadruplicate wells for each data point using nonlinear regression of either sigmoidal dose response or sigmoidal dose response (variable slope). Finally, the EC50 and IC50 values were calculated with the best-fit curve determined by GraphPad Prism
Test samples were prepared by diluting a 10 mM stock solution of test compound with 100% DMSO prior to addition to assay buffer.

[1] = re-test, samples diluted from 10 mM stock with 100% DMSO before addition to assay buffer, Table 7
[2] = HEK293 cells stably expressing canine TRPM8, icilin at ~80% maximal response, Table 6

T1 sequence (Q1A7N1 1-1104): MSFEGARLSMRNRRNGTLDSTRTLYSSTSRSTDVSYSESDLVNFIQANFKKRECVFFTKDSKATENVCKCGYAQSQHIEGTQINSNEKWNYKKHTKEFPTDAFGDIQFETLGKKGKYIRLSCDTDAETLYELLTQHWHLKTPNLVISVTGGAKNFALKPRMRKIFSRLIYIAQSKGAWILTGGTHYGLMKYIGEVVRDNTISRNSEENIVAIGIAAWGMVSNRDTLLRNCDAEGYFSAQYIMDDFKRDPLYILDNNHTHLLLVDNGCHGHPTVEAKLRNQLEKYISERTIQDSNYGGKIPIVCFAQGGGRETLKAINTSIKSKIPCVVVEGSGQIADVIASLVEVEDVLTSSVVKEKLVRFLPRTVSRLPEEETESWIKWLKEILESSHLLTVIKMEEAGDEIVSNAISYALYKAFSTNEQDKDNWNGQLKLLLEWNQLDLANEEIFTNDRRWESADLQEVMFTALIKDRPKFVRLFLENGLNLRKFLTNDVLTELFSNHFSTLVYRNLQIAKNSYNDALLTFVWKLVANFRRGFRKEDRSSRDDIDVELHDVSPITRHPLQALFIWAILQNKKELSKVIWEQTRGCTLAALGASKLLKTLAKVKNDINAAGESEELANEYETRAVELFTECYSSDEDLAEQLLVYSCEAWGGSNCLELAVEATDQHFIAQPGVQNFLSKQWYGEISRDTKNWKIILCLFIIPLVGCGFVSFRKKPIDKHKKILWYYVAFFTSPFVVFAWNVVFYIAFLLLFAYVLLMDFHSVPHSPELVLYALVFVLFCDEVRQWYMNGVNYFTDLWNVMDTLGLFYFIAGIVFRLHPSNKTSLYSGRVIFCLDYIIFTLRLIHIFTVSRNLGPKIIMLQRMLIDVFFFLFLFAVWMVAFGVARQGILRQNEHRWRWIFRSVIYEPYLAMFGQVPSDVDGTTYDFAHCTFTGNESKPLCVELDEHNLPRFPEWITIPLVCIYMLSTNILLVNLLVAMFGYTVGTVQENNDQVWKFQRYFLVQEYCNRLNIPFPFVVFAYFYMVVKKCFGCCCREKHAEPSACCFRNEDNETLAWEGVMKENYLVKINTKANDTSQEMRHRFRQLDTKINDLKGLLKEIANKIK

SMILES	inhibition at 0.2 µM (Table 6)	% Inh @ 0.2 μM (Table 6)	other results
Cn1/c(=N/S(=O)(=O)c2ccccc2)n(Cc2cccc(C(F)(F)F)c2)c2ccccc21 [Compound 4, N-[1-Methyl-3-(3-trifluoromethyl-benzyl)-1,3-dihydro-benzimidazol-2-ylidene]-benzenesulfonamide]	42%	–	–
O=S(=O)(N=c1n(Cc2ccc(C(F)(F)F)cc2)c2ccccc2n1CC(F)(F)F)c1ccccc1 [Compound 40]	9%	–	inhibition at 1 µM (re-test, Table 7): 57%; IC50 [1]: 426 nM
Cn1c(=NS(=O)(=O)c2ccccc2)n(Cc2ccc(C(F)(F)F)c(F)c2)c2cc(C(F)(F)F)ccc21 [Compound 31]	71%	–	IC50 [2]: 39 nM
Cc1ccc2c(c1)n(C)c(=NS(=O)(=O)c1ccccc1)n2Cc1ccc(C(F)(F)F)cc1 [Compound 56]	–	1%	% Inh @ 1 μM (re-test, Table 7): 40%
Cn1c(=NS(=O)(=O)c2ccc(F)cc2)n(Cc2ccc(OC(F)(F)F)cc2)c2ccccc21 [Compound 17]	6%	–	inhibition at 1 µM (re-test, Table 7): 60%; IC50 [1]: 606 nM
Cn1c(=NS(=O)(=O)c2ccccc2)n(Cc2ccc(SC(F)(F)F)cc2)c2ccccc21 [Compound 12]	–	11%	–
Cc1ccc2c(c1)n(C)/c(=N/S(=O)(=O)c1ccccc1)n2Cc1ccc(C(F)(F)F)c(F)c1 [Compound 55, N-[1-(3-Fluoro-4-trifluoromethyl-benzyl)-3,5-dimethyl-1,3-dihydro-benzimidazol-2-ylidene]-benzene sulfonamide]	18%	–	–
CC(C)n1c(=NS(=O)(=O)c2ccccc2)n(Cc2ccc(OC(F)(F)F)cc2)c2cc(Cl)ccc21 [Compound 45]	–	66%	–
O=S(=O)(N=c1n(Cc2ccc(OC(F)(F)F)cc2)c2cccc3c2n1CCC3)c1ccccc1 [Compound 52]	–	18%	–
CC(C)Cn1c(=NS(=O)(=O)c2ccccc2)n(Cc2ccc(OC(F)(F)F)cc2)c2ccccc21 [Compound 28]	70%	–	IC50 [2]: 58 nM
CC(C)Cn1c(=NS(=O)(=O)c2ccccc2)n(Cc2ccc(C(F)(F)F)cc2)c2ccccc21 [Compound 27]	–	71%	IC50 [2]: 43 nM
Cn1c(=NS(=O)(=O)c2ccccc2)n(Cc2cccc(OC(F)(F)F)c2)c2ccccc21 [Compound 5]	–	50%	–
Cn1c(=NS(=O)(=O)c2ccccc2)n(Cc2ccc(C(F)(F)F)c(F)c2)c2ccc(C(F)(F)F)cc21 [Compound 57]	–	45%	–
Cn1c(=NS(=O)(=O)c2ccccc2)n(Cc2ccc(C(F)(F)F)cc2)c2ccc(C(F)(F)F)cc21 [Compound 59]	–	20%	–
Cn1c(=NS(=O)(=O)c2ccccc2)n(Cc2ccc(F)c(Cl)c2)c2ccccc21 [Compound 11]	–	38%	–
CCn1c(=NS(=O)(=O)c2ccccc2)n(Cc2ccc(C(F)(F)F)c(F)c2)c2cc(F)ccc21 [Compound 33]	–	70%	–
Cn1c(=NS(=O)(=O)c2ccccc2)n(Cc2ccc(C(F)(F)F)cc2)c2cc(C(F)(F)F)ccc21 [Compound 29]	–	19%	–
Cn1c(=NS(=O)(=O)c2ccc(C(F)(F)F)cc2)n(Cc2ccc(OC(F)(F)F)cc2)c2ccccc21 [Compound 18]	1%	–	inhibition at 1 µM (re-test, Table 7): 57%; IC50 [1]: 635 nM
Cn1c(=NS(=O)(=O)c2ccccc2)n(Cc2ccc(F)cc2)c2ccccc21 [Compound 8]	–	20%	–
Cn1c(=NS(=O)(=O)c2ccc(C(F)(F)F)cc2)n(Cc2ccc(C(F)(F)F)c(F)c2)c2ccccc21 [Compound 23]	3%	–	inhibition at 1 µM (re-test, Table 7): 59%; IC50 [1]: 764 nM
O=S(=O)(N=c1n(Cc2ccc(OC(F)(F)F)cc2)c2ccccc2n1CC(F)(F)F)c1ccccc1 [Compound 44]	–	37%	–
Cn1c(=NS(=O)(=O)c2ccccc2)n(Cc2ccc(OC(F)(F)F)cc2)c2cc(F)ccc21 [Compound 46]	–	1%	% Inh @ 1 μM (re-test, Table 7): 58%

SMILES	inhibition at 0.2 µM (Table 6)	% Inh @ 0.2 μM (Table 6)	other results
Cn1c(=NS(=O)(=O)c2ccccc2)n(Cc2ccc(C(F)(F)F)c(F)c2)c2cc(F)ccc21 [Compound 41]	–	6%	% Inh @ 1 μM (re-test, Table 7): 79%
Cc1cc2c(cc1C)n(Cc1ccc(OC(F)(F)F)cc1)c(=NS(=O)(=O)c1ccccc1)n2C [Compound 60]	–	5%	% Inh @ 1 μM (re-test, Table 7): 48%
O=S(=O)(N=c1n(Cc2ccc(C(F)(F)F)cc2)c2ccccc2n1CC1CC1)c1ccccc1 [Compound 49]	71%	–	IC50 [2]: 110 nM
Cn1c(=NS(=O)(=O)c2ccccc2)n(Cc2ccc(OC(F)(F)F)cc2)c2cc(C(F)(F)F)ccc21 [Compound 30]	–	17%	–
Cn1c(=NS(=O)(=O)c2ccc(Cl)cc2)n(Cc2ccc(C(F)(F)F)c(F)c2)c2ccccc21 [Compound 22]	–	6%	% Inh @ 1 μM (re-test, Table 7): 77%; IC50 [1]: 512 nM
CCn1c(=NS(=O)(=O)c2ccccc2)n(Cc2ccc(C(F)(F)F)c(F)c2)c2ccccc21 [Compound 25]	–	62%	–
CC(C)n1c(=NS(=O)(=O)c2ccccc2)n(Cc2ccc(C(F)(F)F)c(F)c2)c2cc(Cl)ccc21 [Compound 42]	95%	–	IC50 [2]: 26 nM
O=S(=O)(/N=c1\n(Cc2ccc(C(F)(F)F)cc2)c2cccc3c2n1CCO3)c1ccccc1 [Compound 63, N-[1-(4-Trifluoromethyl-benzyl)-3,4-dihydro-1H-5-oxa-1,2a-diaza-acenaphthylen-2-ylidene]-benzenesulfonamide TFA salt]	34%	–	–
O=S(=O)(/N=c1\n(Cc2ccc(C(F)(F)F)c(F)c2)c2ccccc2n1CC1CC1)c1ccccc1 [Compound 50, N-[1-Cyclopropylmethyl-3-(3-fluoro-4-trifluoromethyl-benzyl)-1,3-dihydro-benzimidazol-2-ylidene]-benzenesulfonamide]	94%	–	IC50 [2]: 86 nM
O=S(=O)(N=c1n(Cc2ccc(OC(F)(F)F)cc2)c2ccccc2n1CC1CC1)c1ccccc1 [Compound 48]	–	67%	–
O=S(=O)(N=c1n(Cc2ccc(C(F)(F)F)cc2)c2cccc3c2n1CCC3)c1ccccc1 [Compound 53]	–	16%	–
Cn1c(=NS(=O)(=O)c2ccccc2)n(Cc2ccc(C(F)(F)F)cc2)c2cc(F)ccc21 [Compound 38]	–	1%	% Inh @ 1 μM (re-test, Table 7): 24%
CC(C)Cn1c(=NS(=O)(=O)c2ccccc2)n(Cc2ccc(C(F)(F)F)c(F)c2)c2ccccc21 [Compound 26]	100%	–	IC50 [2]: 14 nM
Cc1cccc2c1n(Cc1ccc(C(F)(F)F)c(F)c1)c(=NS(=O)(=O)c1ccccc1)n2C [Compound 62]	–	19%	–
CC(C)n1c(=NS(=O)(=O)c2ccccc2)n(Cc2ccc(OC(F)(F)F)cc2)c2cc(C(F)(F)F)ccc21 [Compound 34]	95%	–	IC50 [2]: 24 nM
Cc1cc2c(cc1C)n(Cc1ccc(C(F)(F)F)c(F)c1)c(=NS(=O)(=O)c1ccccc1)n2C [Compound 61]	–	14%	–
O=S(=O)(/N=c1\n(Cc2ccc(C(F)(F)F)c(F)c2)c2ccccc2n1CC(F)(F)F)c1ccccc1 [Compound 43, N-[1-(3-Fluoro-4-trifluoromethyl-benzyl)-3-(2,2,2-trifluoro-ethyl)-1,3-dihydro-benzimidazol-2-ylidene]-benzenesulfonamide]	89%	–	IC50 [2]: 21 nM
O=S(=O)(N=c1n(Cc2ccc(C(F)(F)F)c(F)c2)c2cccc3c2n1CCC3)c1ccccc1 [Compound 51]	–	14%	–
Cn1c(=NS(=O)(=O)c2ccccc2)n(Cc2ccc(F)c(F)c2)c2ccccc21 [Compound 7]	–	24%	–
Cn1c(=NS(=O)(=O)c2ccccc2)n(Cc2ccccc2)c2ccccc21 [Compound 3]	–	8%	% Inh @ 1 μM (re-test, Table 7): 40%
Cc1ccc2c(c1)n(C)c(=NS(=O)(=O)c1ccccc1)n2Cc1ccc(OC(F)(F)F)cc1 [Compound 54]	–	6%	% Inh @ 1 μM (re-test, Table 7): 55%; IC50 [1]: 645 nM
